Test results from patent US5840684A, “Glycopeptide antibiotic derivatives” (Eli Lilly and Company, priority 1995, dated 1998).
Values after ≈ are worked out from the molar mass of the structure shown.

Experiments:
[1] = system: Staphylococcus aureus S13E; format: cell-based
Experimental: (§1) The MIC's were determined using a standard broth micro-dilution assay.

[2] = system: Staphylococcus aureus SA1199B; format: cell-based
Experimental: as §1

[3] = system: Streptococcus pyogenes C203; assay: broth micro-dilution MIC; format: cell-based
Experimental: as §1

[4] = system: Staphylococcus aureus 489; assay: broth micro-dilution MIC; format: cell-based
Experimental: as §1

[5] = system: Staphylococcus aureus SA1199; assay: broth micro-dilution MIC; format: cell-based
Experimental: as §1

[6] = system: Staphylococcus aureus SA1199A; assay: broth micro-dilution MIC; format: cell-based
Experimental: as §1

[7] = system: Entercoccus faecium 180-1; assay: broth micro-dilution MIC; format: cell-based
Experimental: as §1

[8] = system: Staphylococcus aureus X400; assay: broth micro-dilution MIC; format: cell-based
Experimental: as §1

[9] = system: Entercoccus faecium 276; assay: broth micro-dilution MIC; format: cell-based
Experimental: as §1

[10] = system: vancomycin-resistant enterococci; assay: broth micro-dilution, mean geometric MIC; format: cell-based, Enterococcus faecium and Enterococcus faecalis; conditions: enterococci, 24-hour incubation
[11] = system: vancomycin-susceptible enterococci; assay: broth micro-dilution, mean geometric MIC; format: cell-based, Enterococcus faecium and Enterococcus faecalis; conditions: enterococci, 24-hour incubation
[12] = system: Entercoccus faecium 2041; assay: broth micro-dilution MIC; format: cell-based; conditions: Entercoccus faecium 2041
Experimental: (§2) The formula I compounds have in vitro and in vivo activity against Gram-positive pathogenic bacteria. The MIC's were determined using a standard broth micro-dilution assay.

[13] = system: Staphylococcus haemolyticus 415; assay: broth micro-dilution MIC; format: cell-based
Experimental: as §2

[14] = system: Streptococcus pneumoniae P1; assay: broth micro-dilution MIC; format: cell-based
Experimental: as §2

[15] = system: Enterococcus gallinarum 245; assay: broth micro-dilution MIC; format: cell-based; conditions: Enterococcus gallinarum 245
Experimental: as §2

[16] = system: Entercoccus faecium 180; assay: broth micro-dilution MIC; format: cell-based; conditions: Entercoccus faecium 180
Experimental: as §2

[17] = system: Staphylococcus haemolyticus 105; assay: broth micro-dilution MIC; format: cell-based
Experimental: as §2

[18] = system: Staphylococcus aureus 447; assay: broth micro-dilution MIC; format: cell-based
Experimental: as §1

[19] = system: Staphylococcus epidermidis 270; assay: broth micro-dilution MIC; format: cell-based
Experimental: as §2

[20] = system: Staphylococcus aureus 446; assay: broth micro-dilution MIC; format: cell-based
Experimental: as §1

[21] = system: Staphylococcus aureus X778; assay: broth micro-dilution MIC; format: cell-based
Experimental: as §1

Structure (SMILES) | MIC [1] | MIC [2] | MIC [3] | MIC [4] | MIC [5] | MIC [6] | MIC [7] | MIC [8] | MIC [9] | mean geometric MIC, Vancomycin Resistant Strains [10] | mean geometric MIC, Vancomycin Sensitive Strains [11] | MIC [12] | MIC [13] | MIC [14] | MIC [15] | MIC [16] | MIC [17] | MIC [18] | MIC [20] | MIC [21] | also measured
CNC(CC(C)C)C(=O)NC1C(=O)NC(CC(N)=O)C(=O)NC2C(=O)NC3C(=O)NC(C(=O)NC(C(=O)O)c4cc(O)cc(O)c4-c4cc3ccc4O)C(OC3CC(C)(N)C(O)C(C)O3)c3ccc(c(Cl)c3)Oc3cc2cc(c3OC2OC(CO)C(O)C(O)C2OC2CC(C)(NCC3CCC(c4ccccc4)C3)C(O)C(C)O2)Oc2ccc(cc2Cl)C1O (stereo not shown) [Compound 140] | ≤ 0.06 µg/mL | ≤ 0.06 µg/mL | ≤ 0.06 µg/mL | ≤ 0.06 µg/mL | ≤ 0.06 µg/mL | ≤ 0.06 µg/mL | ≤ 0.06 µg/mL | ≤ 0.06 µg/mL | 0.5 µg/mL (≈ 0.286 µM) | 6.7 µg/mL | 0.19 µg/mL | ≤ 0.06 µg/mL | 8 µg/mL (≈ 4.57 µM) | ≤ 0.06 µg/mL | 8 µg/mL (≈ 4.57 µM) | 1 µg/mL (≈ 0.571 µM) | 2 µg/mL (≈ 1.14 µM) |  |  |  | 
CNC(CC(C)C)C(=O)NC1C(=O)NC(CC(N)=O)C(=O)NC2C(=O)NC3C(=O)NC(C(=O)NC(C(=O)O)c4cc(O)cc(O)c4-c4cc3ccc4O)C(OC3CC(C)(N)C(O)C(C)O3)c3ccc(c(Cl)c3)Oc3cc2cc(c3OC2OC(CO)C(O)C(O)C2OC2CC(C)(NCc3ccc(OC(C)=O)cc3)C(O)C(C)O2)Oc2ccc(cc2Cl)C1O (stereo not shown) [Compound 138] | ≤ 0.06 µg/mL | 0.5 µg/mL (≈ 0.287 µM) | ≤ 0.06 µg/mL | ≤ 0.06 µg/mL | ≤ 0.06 µg/mL | ≤ 0.06 µg/mL | ≤ 0.06 µg/mL | ≤ 0.0606 µg/mL | ≤ 0.06 µg/mL | 38 µg/mL |  | ≤ 0.06 µg/mL | 8 µg/mL (≈ 4.6 µM) | ≤ 0.06 µg/mL |  | 4 µg/mL (≈ 2.3 µM) | 4 µg/mL (≈ 2.3 µM) | 2 µg/mL (≈ 1.15 µM) |  |  | MIC [19]: 2 µg/mL (≈ 1.15 µM)
CNC(CC(C)C)C(=O)NC1C(=O)NC(CC(N)=O)C(=O)NC2C(=O)NC3C(=O)NC(C(=O)NC(C(=O)O)c4cc(O)cc(O)c4-c4cc3ccc4O)C(OC3CC(C)(N)C(O)C(C)O3)c3ccc(c(Cl)c3)Oc3cc2cc(c3OC2OC(CO)C(O)C(O)C2OC2CC(C)(NCc3ccc(Oc4ccc(OC)cc4)cc3)C(O)C(C)O2)Oc2ccc(cc2Cl)C1O (stereo not shown) [Compound 98] | 0.5 µg/mL (≈ 0.277 µM) | 1 µg/mL (≈ 0.554 µM) | ≤ 0.06 µg/mL | ≤ 0.06 µg/mL | 0.5 µg/mL (≈ 0.277 µM) | ≤ 0.06 µg/mL | ≤ 0.06 µg/mL | ≤ 0.06 µg/mL | 0.125 µg/mL (≈ 0.0693 µM) | 2.4 µg/mL | 0.095 µg/mL | ≤ 0.06 µg/mL | 1 µg/mL (≈ 0.554 µM) | ≤ 0.06 µg/mL | 1 µg/mL (≈ 0.554 µM) |  | 1 µg/mL (≈ 0.554 µM) |  | 0.5 µg/mL (≈ 0.277 µM) | ≤ 0.06 µg/mL | MIC [19]: ≤ 0.06 µg/mL
CNC(CC(C)C)C(=O)NC1C(=O)NC(CC(N)=O)C(=O)NC2C(=O)NC3C(=O)NC(C(=O)NC(C(=O)O)c4cc(O)cc(O)c4-c4cc3ccc4O)C(OC3CC(C)(N)C(O)C(C)O3)c3ccc(c(Cl)c3)Oc3cc2cc(c3OC2OC(CO)C(O)C(O)C2OC2CC(C)(NCCc3ccccc3OCc3ccccc3)C(O)C(C)O2)Oc2ccc(cc2Cl)C1O (stereo not shown) [Compound 59] | 0.125 µg/mL (≈ 0.0693 µM) | 0.5 µg/mL (≈ 0.277 µM) | ≤ 0.06 µg/mL | 0.125 µg/mL (≈ 0.0693 µM) | 0.125 µg/mL (≈ 0.0693 µM) | ≤ 0.06 µg/mL | ≤ 0.06 µg/mL |  | 0.125 µg/mL (≈ 0.0693 µM) | 51 µg/mL | 0.42 µg/mL | 0.5 µg/mL (≈ 0.277 µM) | 8 µg/mL (≈ 4.44 µM) | ≤ 0.06 µg/mL | 1 µg/mL (≈ 0.555 µM) | 8 µg/mL (≈ 4.44 µM) | 8 µg/mL (≈ 4.44 µM) | 1 µg/mL (≈ 0.555 µM) | 0.5 µg/mL (≈ 0.277 µM) | ≤ 0.06 µg/mL | MIC [19]: 1 µg/mL (≈ 0.555 µM)
CNC(CC(C)C)C(=O)NC1C(=O)NC(CC(N)=O)C(=O)NC2C(=O)NC3C(=O)NC(C(=O)NC(C(=O)O)c4cc(O)cc(O)c4-c4cc3ccc4O)C(OC3CC(C)(N)C(O)C(C)O3)c3ccc(c(Cl)c3)Oc3cc2cc(c3OC2OC(CO)C(O)C(O)C2OC2CC(C)(NCc3ccccc3O)C(O)C(C)O2)Oc2ccc(cc2Cl)C1O (stereo not shown) [Compound 169] | ≤ 0.06 µg/mL | 0.125 µg/mL (≈ 0.0736 µM) | ≤ 0.06 µg/mL | ≤ 0.06 µg/mL | ≤ 0.06 µg/mL | ≤ 0.06 µg/mL | ≤ 0.06 µg/mL | ≤ 0.06 µg/mL | ≤ 0.06 µg/mL | 19 µg/mL | 0.50 µg/mL | ≤ 0.06 µg/mL | 4 µg/mL (≈ 2.35 µM) | ≤ 0.06 µg/mL | 4 µg/mL (≈ 2.35 µM) | 1 µg/mL (≈ 0.589 µM) | 2 µg/mL (≈ 1.18 µM) | 2 µg/mL (≈ 1.18 µM) |  | ≤ 0.06 µg/mL | 
CNC(CC(C)C)C(=O)NC1C(=O)NC(CC(N)=O)C(=O)NC2C(=O)NC3C(=O)NC(C(=O)NC(C(=O)O)c4cc(O)cc(O)c4-c4cc3ccc4O)C(OC3CC(C)(N)C(O)C(C)O3)c3ccc(c(Cl)c3)Oc3cc2cc(c3OC2OC(CO)C(O)C(O)C2OC2CC(C)(NCc3cccc4c([N+](=O)[O-])cccc34)C(O)C(C)O2)Oc2ccc(cc2Cl)C1O (stereo not shown) [Compound 25] | ≤ 0.06 µg/mL |  | ≤ 0.06 µg/mL | ≤ 0.06 µg/mL | ≤ 0.06 µg/mL | ≤ 0.06 µg/mL | ≤ 0.06 µg/mL | ≤ 0.06 µg/mL | 0.25 µg/mL (≈ 0.141 µM) | 4.0 µg/mL | 0.22 µg/mL | 0.25 µg/mL (≈ 0.141 µM) |  | ≤ 0.06 µg/mL | ≤ 0.06 µg/mL |  |  |  |  | ≤ 0.06 µg/mL | 
CNC(CC(C)C)C(=O)NC1C(=O)NC(CC(N)=O)C(=O)NC2C(=O)NC3C(=O)NC(C(=O)NC(C(=O)O)c4cc(O)cc(O)c4-c4cc3ccc4O)C(OC3CC(C)(N)C(O)C(C)O3)c3ccc(c(Cl)c3)Oc3cc2cc(c3OC2OC(CO)C(O)C(O)C2OC2CC(C)(NCc3ccc(-c4ccc(OC)cc4)cc3)C(O)C(C)O2)Oc2ccc(cc2Cl)C1O (stereo not shown) [Compound 54] | 0.5 µg/mL (≈ 0.28 µM) | 1 µg/mL (≈ 0.559 µM) | ≤ 0.06 µg/mL | ≤ 0.06 µg/mL | 0.5 µg/mL (≈ 0.28 µM) | ≤ 0.06 µg/mL | ≤ 0.06 µg/mL | ≤ 0.06 µg/mL | 1 µg/mL (≈ 0.559 µM) | 1.7 µg/mL | 0.56 µg/mL | ≤ 0.06 µg/mL | 1 µg/mL (≈ 0.559 µM) | ≤ 0.06 µg/mL | 0.5 µg/mL (≈ 0.28 µM) | 1 µg/mL (≈ 0.559 µM) | 2 µg/mL (≈ 1.12 µM) |  | 1 µg/mL (≈ 0.559 µM) | ≤ 0.06 µg/mL | 
CNC(CC(C)C)C(=O)NC1C(=O)NC(CC(N)=O)C(=O)NC2C(=O)NC3C(=O)NC(C(=O)NC(C(=O)O)c4cc(O)cc(O)c4-c4cc3ccc4O)C(OC3CC(C)(N)C(O)C(C)O3)c3ccc(c(Cl)c3)Oc3cc2cc(c3OC2OC(CO)C(O)C(O)C2OC2CC(C)(NCc3ccc(-c4ccc(OC)c(OC)c4)cc3)C(O)C(C)O2)Oc2ccc(cc2Cl)C1O (stereo not shown) [Compound 215] | 2 µg/mL (≈ 1.1 µM) | 1 µg/mL (≈ 0.55 µM) | ≤ 0.06 µg/mL | 2 µg/mL (≈ 1.1 µM) | ≤ 0.06 µg/mL | 0.5 µg/mL (≈ 0.275 µM) | ≤ 0.06 µg/mL | 0.5 µg/mL (≈ 0.275 µM) | 2 µg/mL (≈ 1.1 µM) | 2.8 µg/mL |  |  | 1 µg/mL (≈ 0.55 µM) | ≤ 0.06 µg/mL |  | ≤ 0.06 µg/mL | 2 µg/mL (≈ 1.1 µM) | 0.5 µg/mL (≈ 0.275 µM) | 0.5 µg/mL (≈ 0.275 µM) | ≤ 0.06 µg/mL | 
